We go through 25 compounds from patent US6653300B2, “Pyrazole compounds useful as protein kinase inhibitors” (Vertex Pharmaceuticals Incorporated, priority 2000, dated 2003).

The target of one data set is T1, Aurora-2 (Homo sapiens, UniProt O14965).
T1 sequence (O14965 1-403): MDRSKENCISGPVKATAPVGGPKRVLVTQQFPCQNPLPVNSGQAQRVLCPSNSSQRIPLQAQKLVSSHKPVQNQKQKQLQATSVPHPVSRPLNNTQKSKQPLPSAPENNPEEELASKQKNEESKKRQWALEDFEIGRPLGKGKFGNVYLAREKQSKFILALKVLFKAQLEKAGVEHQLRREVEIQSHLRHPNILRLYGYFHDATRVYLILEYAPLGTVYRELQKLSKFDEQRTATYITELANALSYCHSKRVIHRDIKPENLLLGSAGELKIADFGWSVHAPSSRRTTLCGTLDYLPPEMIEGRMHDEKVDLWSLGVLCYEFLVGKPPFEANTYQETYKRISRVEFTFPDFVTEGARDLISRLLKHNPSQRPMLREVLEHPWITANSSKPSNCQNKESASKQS
The data set is described as follows: Ki determination for the inhibition of Aurora-2 (coupled enzyme assay). As to conditions: 70 nM Aurora-2, 30° C. The class given is biochemical. On the procedure: Compounds were screened in the following manner for their ability to inhibit Aurora-2 using a standard coupled enzyme assay (Fox et al (1998) Protein Sci 7, 2249).
To an assay stock buffer solution containing 0.1M HEPES 7.5, 10 mM MgCl2, 1 mM DTT, 25 mM NaCl, 2.5 mM phosphoenolpyruvate, […], 30 mg/ml pyruvate kinase, 10 mg/ml lactate dehydrogenase, […], and 800 μM peptide (LRRASLG, American Peptide, Sunnyvale, Calif.) was added a DMSO solution of a compound of the present invention to a final concentration of 30 μM. The resulting mixture was incubated at 30° C. for 10 min. The reaction was initiated by the addition of 10 μL of Aurora-2 stock solution to give a final concentration of 70 nM in the assay. The rates of reaction were obtained by monitoring absorbance at 340 nm over a 5 minute read time at 30° C. using a BioRad Ultramark plate reader (Hercules, Calif.). The Ki values were determined from the rate data as a function of inhibitor concentration.

For the next data set, the target named is T2, GSK-3β (AA 1-420) (Homo sapiens, UniProt P49841).
T2 construct: GSK-3β (AA 1-420)
T2 sequence (P49841 whole entry, the tested form may be a part): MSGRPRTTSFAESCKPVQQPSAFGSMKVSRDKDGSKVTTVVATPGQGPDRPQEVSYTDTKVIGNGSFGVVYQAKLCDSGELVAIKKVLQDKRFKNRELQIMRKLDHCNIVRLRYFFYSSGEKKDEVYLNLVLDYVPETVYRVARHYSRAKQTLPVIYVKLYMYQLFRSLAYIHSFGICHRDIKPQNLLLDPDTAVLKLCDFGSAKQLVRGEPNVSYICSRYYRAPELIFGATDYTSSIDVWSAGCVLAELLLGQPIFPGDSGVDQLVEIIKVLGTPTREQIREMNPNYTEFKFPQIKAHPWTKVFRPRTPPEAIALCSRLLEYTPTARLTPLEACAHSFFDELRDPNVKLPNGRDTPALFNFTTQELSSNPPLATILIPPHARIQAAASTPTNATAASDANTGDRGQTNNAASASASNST
Kind of data set: Ki determination for the inhibition of GSK-3 (coupled enzyme system). In kind it is biochemical. Particulars: 20 μM ATP, 20 nM GSK-3β, 30° C. In short, it runs like this: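 GSK-3β (AA 1-420, 20 nM) was run in a pyruvate kinase/LDH-coupled NADH assay in 100 mM HEPES pH 7.5, 10 mM MgCl2, 25 mM NaCl, 1 mM DTT, 1.5% DMSO, with 300 μM phosphopeptide substrate. Compound (0.002–30 μM) was preincubated 10 min at 30° C, then 20 μM ATP was added.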

SMILES strings stand for the structures.

Compound `CC(=O)Nc1ccc(Sc2nc(Nc3cc(C)n[nH]3)cc(-c3ccc(OCCCN(C)C)cc3)n2)cc1` [IIIa-43, {2-(4-Acetamido-phenyl-sulfanyl)-6-[4-(3-dimethylamino-propoxy)-phenyl]-pyrimidin-4-yl}-(5-methyl-2H-pyrazol-3-yl)-amine] gave a melting point of 219 to 222 °C. The compound further gave a Ki on Aurora-2 of 1000 to 10000 nM. Also, the Ki on GSK-3β (AA 1-420) fell in the range of 1000 to 7000 nM.
The like results for `CCc1ccccc1Sc1nc(Nc2cc(C)[nH]n2)c2ccccc2n1` [IIa-5, [2-(2-Ethylphenylsulfanyl)-quinazolin-4-yl]-(5-methyl-2H-pyrazol-3-yl)-amine] were, in that order, 205 to 208 °C, under 100 nM and 100 to 1000 nM.
In turn, `Cc1cc(Nc2nc(Sc3nccn3C)nc3ccccc23)n[nH]1` [IIa-10, [2-(1-Methylimidazol-2-ylsulfanyl)-quinazolin-4-yl]-(5-methyl-2H-pyrazol-3-yl)-amine] came in with a melting point of 255 to 256 °C. The same compound showed a Ki on Aurora-2 of 1000 to 10000 nM. For the same compound, the Ki at GSK-3β (AA 1-420) lay in the range of 1000 to 7000 nM.
`Cc1cc(Nc2nc(Sc3ccccc3O)nc3ccccc23)n[nH]1` [IIa-11, [2-(2-Hydroxyphenylsulfanyl)-quinazolin-4-yl]-(5-methyl-2H-pyrazol-3-yl)-amine]: the melting point was in the range of 273 to 275 °C. The same compound had a Ki on Aurora-2 of under 100 nM. Further, the Ki on GSK-3β (AA 1-420) was under 100 nM.
Consider `Cc1cc(Nc2nc(Sc3ccc(F)cc3F)nc3ccccc23)n[nH]1` [IIa-12, [2-(2,4-Difluorophenylsulfanyl)-quinazolin-4-yl]-(5-methyl-2H-pyrazol-3-yl)-amine], for which the melting point fell in the range of 256 to 258 °C. The Ki at Aurora-2 is under 100 nM. In addition, the inhibition constant (Ki) on GSK-3β (AA 1-420) is under 100 nM.
`COC(=O)c1cccc(Sc2nc(Nc3cc(C4CC4)[nH]n3)c3ccccc3n2)c1` [IIa-22, (5-Cyclopropyl-2H-pyrazol-3-yl)-[2-(3-methoxycarbonylphenylsulfanyl)-quinazolin-4-yl]-amine] registered a melting point of 224 to 225 °C. On Aurora-2, this compound came in with a Ki of under 100 nM. Besides, the Ki on GSK-3β (AA 1-420) was under 100 nM.
The compound `O=C(O)c1cccc(Sc2nc(Nc3cc(C4CC4)[nH]n3)c3ccccc3n2)c1` [IIa-26, [2-(3-Carboxyphenylsulfanyl)-quinazolin-4-yl]-(5-cyclopropyl-2H-pyrazol-3-yl)-amine] displayed a melting point of over 300 °C. This compound yielded a Ki at Aurora-2 of under 100 nM. On GSK-3β (AA 1-420), the inhibition constant Ki is under 100 nM.
On to `c1ccc2cc(Sc3nc4c(c(Nc5cc(C6CC6)[nH]n5)n3)CCCC4)ccc2c1` [IIa-29, (5-Cyclopropyl-2H-pyrazol-3-yl)-[2-(naphthalen-2-ylsulfanyl)-5,6,7,8-tetrahydroquinazolin-4-yl-]-amine], for which the melting point worked out at 244 °C. Also, the Ki on Aurora-2 is under 100 nM. Moreover, on GSK-3β (AA 1-420), the Ki was 100 to 1000 nM.
Take `c1ccc2[nH]c(Sc3nc(Nc4cc(C5CC5)[nH]n4)c4ccccc4n3)nc2c1` [IIa-34, [2-(Benzimidazol-2-ylsulfanyl)-quinazolin-4-yl]-(5-cyclopropyl-2H-pyrazol-3-yl)-amine]: the melting point was in the range of 201 to 203 °C. The Ki on Aurora-2 is under 100 nM. For the same compound, on GSK-3β (AA 1-420), the Ki was in the range of 100 to 1000 nM.
For the compound `COC(=O)c1ccc(Sc2nc(Nc3cc(C4CC4)[nH]n3)c3ccccc3n2)cc1` [IIa-35, (5-Cyclopropyl-2H-pyrazol-3-yl)-[2-(4-methoxycarbonylphenylsulfanyl)-quinazolin-4-yl]-amine], the melting point lay in the range of 245 to 246 °C. Moreover, the Ki at Aurora-2 is under 100 nM. For the same compound, the Ki on GSK-3β (AA 1-420) is 100 to 1000 nM.
The like results for `CC(=O)Nc1ccc(Sc2nc(Nc3cc(C)[nH]n3)c3cccc(OCCCN4CCOCC4)c3n2)cc1` [IIa-41, [2-(4-Acetamidophenylsulfanyl)-8-(3-morpholin-4-yl-propoxy)-quinazolin-4-yl]-(5-methyl-2H-pyrazol-3-yl)-amine] were, in that order, 262 to 264 °C, under 100 nM and 100 to 1000 nM.
The compound `COC(=O)c1ccc(Sc2nc(Nc3cc(C)[nH]n3)c3ccccc3n2)cc1` [IIa-42, [2-(4-Methoxycarbonylphenylsulfanyl)-quinazolin-4-yl]-(5-methyl-2H-pyrazol-3-yl)-amine] yielded a melting point of 257 to 260 °C. The same compound showed a Ki at Aurora-2 of under 100 nM. The compound also returned an inhibition constant Ki at GSK-3β (AA 1-420) of 100 to 1000 nM.
The like results for `Cc1cc(Nc2nc(Sc3ccc(C(=O)O)cc3)nc3ccccc23)[nH]n1` [IIa-43, [2-(4-Carboxyphenylsulfanyl)-quinazolin-4-yl]-(5-methyl-2H-pyrazol-3-yl)-amine] were, in that order, 263 to 265 °C, under 100 nM and under 100 nM.
On to `Cc1cc(Nc2nc(Sc3ccc(Br)cc3)nc3ccccc23)n[nH]1` [IIa-46, [2-(4-Bromophenylsulfanyl)-quinazolin-4-yl]-(5-methyl-2H-pyrazol-3-yl)-amine], for which the melting point was over 300 °C. This compound displayed a Ki on Aurora-2 of under 100 nM. Moreover, the inhibitory constant (Ki) on GSK-3β (AA 1-420) was under 100 nM.
For the compound `Cc1cc(Nc2nc(Sc3cccc(Br)c3)nc3ccccc23)n[nH]1` [IIa-47, [2-(3-Bromophenylsulfanyl)-quinazolin-4-yl]-(5-methyl-2H-pyrazol-3-yl)-amine], the melting point is 280 to 281 °C. The Ki at Aurora-2 was under 100 nM. Further, the Ki at GSK-3β (AA 1-420) was under 100 nM.
As to `Cc1cc(Nc2nc(Sc3ccc(NC(=O)C(C)C)cc3)nc3ccccc23)n[nH]1` [IIa-49, [2-(4-Isobutyrylamino-phenylsulfanyl)-quinazolin-4-yl]-(5-methyl-2H-pyrazol-3-yl)-amine], the melting point was in the range of 285 to 287 °C. In addition, the Ki on Aurora-2 is under 100 nM. At GSK-3β (AA 1-420), this compound showed a Ki of 1000 to 7000 nM.
On to `Cc1cc(Nc2nc(Sc3ccc(NC(=O)CC(C)C)cc3)nc3ccccc23)n[nH]1` [IIa-57, [2-(4-Isobutanecarbonylamino-phenylsulfanyl)-quinazolin-4-yl]-(5-methyl-2H-pyrazol-3-yl)-amine], for which the melting point is 281 to 282 °C. On Aurora-2, this compound gave a Ki of under 100 nM.
Taken in the same sequence, the figures for `CC(=O)Nc1ccc(Sc2nc(Nc3cc(C)[nH]n3)c3ccc(N)cc3n2)cc1` [IIa-59, [2-(4-Acetamido-phenylsulfanyl)-7-aminoquinazolin-4-yl]-(5-methyl-2H-pyrazol-3-yl)-amine] were 264 to 265 °C and under 100 nM.
`Cc1cc(Nc2nc(Sc3ccc(NC(=O)CN4CCOCC4)cc3)nc3ccccc23)n[nH]1` [IIa-60, (5-Methyl-2H-pyrazol-3-yl)-{2-[4-(2-morpholin-4-yl-acetylamino)-phenylsulfanyl]-quinazolin-4-yl}-amine] showed a melting point of 266 to 267 °C. At Aurora-2, this compound came in with a Ki of under 100 nM.
Turning to `CC(=O)Nc1ccc(Sc2nc(Nc3cc(C)[nH]n3)c3cccc(OCCCN(C)C)c3n2)cc1` [IIa-73, [2-(4-Acetamidophenylsulfanyl)-8-(3-dimethylamino-propoxy)-quinazolin-4-yl]-(5-methyl-2H-pyrazol-3-yl)-amine], the melting point lay in the range of 170 to 172 °C. The Ki at Aurora-2 is under 100 nM.
Turning to `CC(=O)Nc1ccc(Sc2nc(Nc3cc(C)[nH]n3)c3ccc(OCCCN(C)C)cc3n2)cc1` [IIa-75, [2-(4-Acetamidophenylsulfanyl)-7-(3-dimethylamino-propoxy)-quinazolin-4-yl]-(5-methyl-2H-pyrazol-3-yl)-amine], the melting point fell in the range of 249 to 250 °C. The Ki at Aurora-2 was under 100 nM.
Taken in the same sequence, the figures for `Cc1cc(Nc2nc(Oc3ccc4ccccc4c3)nc3ccccc23)n[nH]1` [IIb-2, (5-Methyl-2H-pyrazol-3-yl)-[2-(naphthalen-2-yloxy)-quinazolin-4-yl]-amine] were over 300 °C and under 100 nM.
Regarding `COc1cccc(Oc2nc(Nc3cc(C)[nH]n3)c3ccccc3n2)c1` [IIb-6, [2-(3-Methoxyphenoxy)-quinazolin-4-yl]-(5-methyl-2H-pyrazol-3-yl)-amine], the melting point lay within 277 to 278 °C. Also, the Ki at Aurora-2 was under 100 nM.
The like results for `c1ccc(-c2cccc(Nc3nc(Nc4cc(C5CC5)[nH]n4)c4ccccc4n3)c2)cc1` [IIc-46, [2-(Biphenyl-3-ylamino)-quinazolin-4-yl]-(5-cyclopropyl-2H-pyrazol-3-yl)-amine] were, in that order, 153 °C and under 100 nM.
On to `Cc1cc(Nc2nc(COc3ccc(Cl)cc3)nc3c2CCCC3)n[nH]1` [IId-6, [2-(4-Chlorophenoxymethyl)-5,6,7,8-tetrahydro-quinazolin-4-yl]-(5-methyl-2H-pyrazol-3-yl)-amine], for which the Ki at Aurora-2 and at GSK-3β (AA 1-420) was 100 to 1000 nM in each case.

The Ki is the dissociation constant of the complex between target and ligand, obtained from inhibition or displacement. What is called melting point is the temperature of the solid-liquid transition.
